Several values for one entry are separate records, joined by “and”; a condition that tells them apart may be missing. Equal values may be shown once. Entries after “also recorded” stand apart in the source; their conditions may differ. Read-outs that look alike come from different tables or passages of the source. Marks after values point to notes of the source that are not given here.
Legend:
5-HT1A receptor = biological target: T1, 5-HT1A receptor (Homo sapiens, UniProt P08908); assay: cAMP-Glo assay of 5-HT1A receptor modulation, +5-HT1A (CHO-K1/5-HT1A/Ga15) vs -5-HT1A (CHO-K1/Ga15) cells; assay type: cell-based; design: dose or concentration left out as unconfirmed; conditions: +5-HT1A vs -5-HT1A cell cultures stimulated with forskolin, increasing ligand concentrations
T1 construct: host or cells: CHO-K1 (co-expressing Ga15)
T1 sequence (P08908 1-422): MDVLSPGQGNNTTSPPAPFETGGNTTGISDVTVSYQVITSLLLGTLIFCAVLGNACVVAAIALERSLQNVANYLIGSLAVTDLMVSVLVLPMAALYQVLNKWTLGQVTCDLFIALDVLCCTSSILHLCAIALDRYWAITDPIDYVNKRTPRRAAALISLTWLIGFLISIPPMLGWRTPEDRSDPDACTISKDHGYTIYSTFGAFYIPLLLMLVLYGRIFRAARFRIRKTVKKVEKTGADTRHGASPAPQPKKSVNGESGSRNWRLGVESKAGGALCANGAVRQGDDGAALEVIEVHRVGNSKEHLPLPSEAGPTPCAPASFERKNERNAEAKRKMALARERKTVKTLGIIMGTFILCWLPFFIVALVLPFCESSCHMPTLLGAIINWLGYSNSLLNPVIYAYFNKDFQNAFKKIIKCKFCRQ

5-HT2A receptor = 5-HT2A receptor (Homo sapiens, UniProt P28223); assay: [3H]ketanserin competition binding assay (SPA) at 5-HT2A; conditions: 1 nM [3H]ketanserin, FIGS. 3E, 3F
5-HT2A receptor, sequence (P28223 whole entry): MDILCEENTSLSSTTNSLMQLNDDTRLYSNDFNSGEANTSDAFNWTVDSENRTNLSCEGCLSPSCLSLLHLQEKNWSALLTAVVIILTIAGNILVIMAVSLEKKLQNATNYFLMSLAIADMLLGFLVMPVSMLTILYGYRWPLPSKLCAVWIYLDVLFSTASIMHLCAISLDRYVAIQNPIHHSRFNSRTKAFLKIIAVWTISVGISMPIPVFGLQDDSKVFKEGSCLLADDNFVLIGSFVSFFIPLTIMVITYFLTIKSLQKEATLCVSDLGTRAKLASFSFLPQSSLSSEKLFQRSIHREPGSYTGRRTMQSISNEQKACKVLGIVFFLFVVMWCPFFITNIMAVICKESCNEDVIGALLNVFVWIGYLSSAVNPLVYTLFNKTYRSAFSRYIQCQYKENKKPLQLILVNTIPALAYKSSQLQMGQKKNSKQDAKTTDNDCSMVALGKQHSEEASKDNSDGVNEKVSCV

[1] = biological target: T2, neuronal 5-HT2A receptor (5-HT2AR) (Mus musculus, UniProt P35363); assay: Drug-induced Head Twitch Response (HTR) in mice; assay type: in vivo, C57BL/6-Elite mice; conditions: 1 mg/kg i.p., 15-to-30-minute window post-drug, relative to vehicle-treated control mice
T2 construct: HTR was measured in mice treated with a control and test compounds; tissue Charles River; host or cells: live C57BL/6-Elite mice (neuronal receptor)
T2 sequence (P35363 whole entry): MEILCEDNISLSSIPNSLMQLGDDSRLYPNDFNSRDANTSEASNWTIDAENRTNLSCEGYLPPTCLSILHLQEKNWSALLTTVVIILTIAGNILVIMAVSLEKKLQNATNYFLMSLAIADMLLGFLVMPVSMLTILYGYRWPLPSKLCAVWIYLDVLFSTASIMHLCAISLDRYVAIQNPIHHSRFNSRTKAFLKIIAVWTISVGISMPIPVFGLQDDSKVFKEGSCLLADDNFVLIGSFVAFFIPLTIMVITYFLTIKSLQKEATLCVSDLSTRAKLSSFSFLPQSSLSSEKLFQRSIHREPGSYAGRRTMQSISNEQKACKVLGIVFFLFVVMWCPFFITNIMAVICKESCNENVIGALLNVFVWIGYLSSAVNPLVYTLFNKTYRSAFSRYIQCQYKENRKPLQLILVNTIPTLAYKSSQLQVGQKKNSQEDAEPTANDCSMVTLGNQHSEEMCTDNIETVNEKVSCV

[2] = Mouse pharmacokinetic (PK) study, parent compound and psilocin metabolite in plasma; assay type: in vivo, C57Bl/6 mice; conditions: for Detectability of administered compound in plasma, any animals at any dose: i.v. and oral doses
Text: (§1) Briefly, the procedure was as follows. […] 19, 2022.

[3] = LC-MS measurement of dosing solution concentrations (nominal vs measured); assay type: physicochemical
Protocol: as §1
Pharmacokinetic (PK) evaluations were performed in the same manner as described in Example 1, except compound C(IV) was used in place of compound C(V). […] Thus, only psilocin PK analysis was performed. […] Table 46 summarizes these “measured” concentrations along with corresponding “nominal” concentrations for each dosing solution. Results for psilocin PK following C(IV) administration are found in Tables 47A-47B (0.293 mg/kg IV dose), Tables 48A-48B (0.275 mg/kg oral dose), Tables 49A-49B (0.789 mg/kg oral dose), Tables 50A-50B (2.52 mg/kg oral dose), Table 51 (comparative summary for IV data), Table 52 (comparative summary for oral data), Table 53A (psilocin exposure) and FIGS. 10H (i) and 10H (ii).

GABAA = GABAA (Homo sapiens, UniProt P14867+P18507+P47870); assay type: cell-based; conditions: ion channel
GABAA, sequence (P14867 28-456): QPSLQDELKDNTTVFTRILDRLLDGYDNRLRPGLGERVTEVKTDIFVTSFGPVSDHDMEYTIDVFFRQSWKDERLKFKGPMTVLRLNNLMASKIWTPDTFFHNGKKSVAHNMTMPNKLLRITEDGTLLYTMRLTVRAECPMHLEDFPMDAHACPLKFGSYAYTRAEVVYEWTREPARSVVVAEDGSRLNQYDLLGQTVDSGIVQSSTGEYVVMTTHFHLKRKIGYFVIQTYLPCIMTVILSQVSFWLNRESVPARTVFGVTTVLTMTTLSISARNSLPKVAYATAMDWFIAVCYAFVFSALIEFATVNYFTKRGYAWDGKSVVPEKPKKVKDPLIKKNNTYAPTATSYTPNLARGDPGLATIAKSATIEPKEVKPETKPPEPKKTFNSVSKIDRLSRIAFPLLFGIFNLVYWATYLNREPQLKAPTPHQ
GABAA, sequence (P47870 26-512): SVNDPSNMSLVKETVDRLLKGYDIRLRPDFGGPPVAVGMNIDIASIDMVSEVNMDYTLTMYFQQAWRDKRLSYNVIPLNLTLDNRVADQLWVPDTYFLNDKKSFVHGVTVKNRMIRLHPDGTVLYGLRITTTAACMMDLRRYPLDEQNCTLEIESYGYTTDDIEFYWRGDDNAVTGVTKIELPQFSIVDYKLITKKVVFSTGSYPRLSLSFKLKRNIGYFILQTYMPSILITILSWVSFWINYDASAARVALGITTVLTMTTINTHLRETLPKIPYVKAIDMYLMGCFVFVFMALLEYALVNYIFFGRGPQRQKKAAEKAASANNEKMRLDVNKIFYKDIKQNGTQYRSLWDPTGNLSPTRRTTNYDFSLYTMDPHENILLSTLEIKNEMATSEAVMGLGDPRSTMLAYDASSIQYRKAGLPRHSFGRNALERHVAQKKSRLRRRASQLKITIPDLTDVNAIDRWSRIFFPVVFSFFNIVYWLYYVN
GABAA, sequence (P18507 40-475): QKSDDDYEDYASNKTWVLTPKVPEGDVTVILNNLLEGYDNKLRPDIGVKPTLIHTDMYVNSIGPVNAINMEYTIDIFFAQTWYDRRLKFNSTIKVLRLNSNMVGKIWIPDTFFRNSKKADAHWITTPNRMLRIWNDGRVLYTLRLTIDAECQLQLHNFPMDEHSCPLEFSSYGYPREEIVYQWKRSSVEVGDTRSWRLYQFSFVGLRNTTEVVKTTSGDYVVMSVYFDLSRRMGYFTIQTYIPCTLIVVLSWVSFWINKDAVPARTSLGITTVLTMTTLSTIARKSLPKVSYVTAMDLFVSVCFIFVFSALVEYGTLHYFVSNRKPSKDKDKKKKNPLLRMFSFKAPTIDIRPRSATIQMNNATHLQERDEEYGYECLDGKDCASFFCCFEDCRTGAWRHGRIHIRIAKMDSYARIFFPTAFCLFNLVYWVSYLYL

[4] = mouse, prodrug 1 mg/kg i.v., 8 h, individual animals
[5] = mouse, prodrug 1 mg/kg oral, 8 h, individual animals
[6] = mouse, prodrug 1 mg/kg oral, 24 h, individual animals
[7] = mouse, prodrug 3 mg/kg oral, 24 h, individual animals
[8] = mouse, prodrug 10 mg/kg oral, 24 h, individual animals

COC(=O)c1cccc(C(=O)Oc2cccc3[nH]cc(CCN(C)C)c23)c1 [C(XLIII)]
5-HT1A receptor modulation (reduction of cAMP levels) (5-HT1A receptor): receptor modulation at higher ligand concentrations

N[C@@H](Cc1c[nH]c2ccccc12)C(=O)O [tryptophan, reference compound]
Competition binding vs [3H]ketanserin at 5-HT2A (control outcome) (5-HT2A receptor): no binding
5-HT1A receptor modulation (reduction of cAMP levels) (5-HT1A receptor): no reduction in cellular cAMP levels

CN(C)CCc1c[nH]c2cccc(OC(=O)CC3CC3)c12 [C(IV)]
Incidences of Head Twitch Response (HTR) [1]: Elevated incidences of HTR
Plasma concentration of psilocin ([2]; 0.275 mg/kg oral C(IV), 24 h, animals M64-M66): No Peak
Plasma concentration of psilocin ([2]; 0.789 mg/kg oral C(IV), 24 h, animals M67-M69): No Peak
Detectability of administered compound in plasma, any animals at any dose ([2]; mouse): not detectable in any animals at any dose
Psilocin, measured, in C(IV) residual dosing solution ([3]; C(IV) nominal 0.1 mg/mL, not accurate, peak below LLOQ, for reference only): 0.00174^d mg/mL
Psilocin, measured, in C(IV) residual dosing solution ([3]; C(IV) nominal 0.2 mg/mL): 0.00324 mg/mL
Psilocin, measured, in C(IV) residual dosing solution ([3]; C(IV) nominal 0.3 mg/mL): 0.00474 mg/mL
Psilocin, measured, in C(IV) residual dosing solution ([3]; C(IV) nominal 1 mg/mL): 0.0234 mg/mL
Stability in dosing solutions ([3]; PK dosing solutions): compound instability in dosing solutions
C(IV), measured, residual dosing solution concentration ([3]; nominal 0.1 mg/mL): 0.0275 mg/mL
C(IV), measured, residual dosing solution concentration ([3]; nominal 0.2 mg/mL): 0.0586 mg/mL
C(IV), measured, residual dosing solution concentration ([3]; nominal 0.3 mg/mL): 0.0789 mg/mL
C(IV), measured, residual dosing solution concentration ([3]; nominal 1 mg/mL): 0.252 mg/mL
IC50 (GABAA; blocker (BL)): > 100 µM
EC50 (GABAA; opener (OP)): > 100 µM
5-HT1A receptor modulation (reduction of cAMP levels) (5-HT1A receptor): significant receptor modulation

CN(C)CCc1c[nH]c2cccc(OC(=O)c3c(F)c(F)c(F)c(F)c3F)c12 [C(VI)]
Incidences of Head Twitch Response (HTR) [1]: Elevated incidences of HTR
Detectability of administered compound in plasma, any animals at any dose ([2]; mouse): not detectable in any animals at any dose
Plasma concentration of psilocin [2, 4]: BLQ (BLQ denotes below the lower limit of quantitation (0.2 ng/ml).)
Plasma concentration of psilocin [2, 5]: BLQ (BLQ denotes below the lower limit of quantitation (0.2 ng/ml).)
Plasma concentration of psilocin [2, 6]: BLQ (BLQ denotes below the lower limit of quantitation (0.2 ng/ml).); also recorded: No Peak
Plasma concentration of psilocin [2, 7]: BLQ (BLQ denotes below the lower limit of quantitation (0.2 ng/ml).); also recorded: No Peak
Plasma concentration of psilocin [2, 8]: BLQ (BLQ denotes below the lower limit of quantitation (0.2 ng/ml).)
IC50 (GABAA; blocker (BL)): > 100 µM
EC50 (GABAA; opener (OP)): > 100 µM
5-HT1A receptor modulation (reduction of cAMP levels) (5-HT1A receptor): no receptor modulation at higher ligand concentrations

COCCOCCOCC(=O)Oc1cccc2[nH]cc(CCN(C)C)c12 [C(III)]
Incidences of Head Twitch Response (HTR) [1]: Elevated incidences of HTR
5-HT1A receptor modulation (reduction of cAMP levels) (5-HT1A receptor): significant receptor modulation

NCCc1c[nH]c2ccc(O)cc12 [serotonin, reference compound]
5-HT1A receptor modulation (reduction of cAMP levels) (5-HT1A receptor): reduction in cAMP levels

CN(C)CCc1c[nH]c2cccc(OC(=O)c3cccc(C(=O)Oc4cccc5[nH]cc(CCN(C)C)c45)c3)c12 [C(VII)]
Incidences of Head Twitch Response (HTR) [1]: Elevated incidences of HTR
5-HT1A receptor modulation (reduction of cAMP levels) (5-HT1A receptor): no significant receptor modulation

CN(C)CCc1c[nH]c2cccc(O)c12 [psilocin, reference compound]
Competition binding vs [3H]ketanserin at 5-HT2A (control outcome) (5-HT2A receptor): binding
5-HT1A receptor modulation (reduction of cAMP levels) (5-HT1A receptor): reduction in cAMP levels

COc1ccc(C(=O)Oc2cccc3[nH]cc(CCN(C)C)c23)cc1 [C(V)]
Incidences of Head Twitch Response (HTR) [1]: Elevated incidences of HTR
Detectability of administered compound in plasma, i.v. administered animals ([2]; mouse, 1 mg/kg i.v.): only detectable in i.v. administered animals
Detectability of administered compound in plasma, orally administered animals ([2]; mouse, oral, any dose (1, 3, 10 mg/kg)): not detectable in orally administered animals at any dose
Plasma concentration of administered (parent) compound ([2]; mouse, 1 mg/kg i.v., 5 min, individual animals, 1 mg/kg): 6.53 ng/mL and 53.8 ng/mL and 13.5 ng/mL
Plasma concentration of administered (parent) compound ([2]; mouse, 1 mg/kg i.v., 5 min, mean ± SD): 24.6 ± 25.5 ng/mL
Plasma concentration of administered (parent) compound ([2]; mouse, 1 mg/kg i.v., 0.25 h, individual animals, 1 mg/kg): BLQ (BLQ denotes below the lower limit of quantitation (0.5 ng/mL).)
Plasma concentration of administered (parent) compound ([2]; mouse, 1 mg/kg i.v., 0.25 h, mean ± SD): 0.834 (n = 1) ng/mL
Plasma concentration of administered (parent) compound ([2]; mouse, 1 mg/kg i.v., 0.5 h, individual animals, 1 mg/kg): BLQ (BLQ denotes below the lower limit of quantitation (0.5 ng/mL).); also recorded: No Peak
Plasma concentration of administered (parent) compound ([2]; mouse, 1 mg/kg i.v., 1 h, individual animals): No Peak
Plasma concentration of administered (parent) compound ([2]; mouse, 1 mg/kg i.v., 2 h, individual animals): No Peak
Plasma concentration of administered (parent) compound ([2]; mouse, 1 mg/kg i.v., 4 h, individual animals): No Peak
Plasma concentration of administered (parent) compound ([2]; mouse, 1 mg/kg i.v., 6 h, individual animals): No Peak
Plasma concentration of administered (parent) compound ([2]; mouse, 1 mg/kg i.v., 8 h, individual animals): No Peak
Cmax of administered (parent) compound ([2]; mouse, 1 mg/kg i.v., individual animals, 1 mg/kg): 6.53 ng/mL and 53.8 ng/mL and 13.5 ng/mL
Cmax of administered (parent) compound ([2]; mouse, 1 mg/kg i.v., mean ± SD): 24.6 ± 25.5 ng/mL
Plasma concentration of psilocin [2, 4]: BLQ (BLQ denotes below the lower limit of quantitation (0.2 ng/ml).)
Plasma concentration of psilocin [2, 5]: BLQ (BLQ denotes below the lower limit of quantitation (0.2 ng/ml).)
Plasma concentration of psilocin [2, 6]: No Peak; also recorded: BLQ (BLQ denotes below the lower limit of quantitation (0.2 ng/ml).)
Plasma concentration of psilocin [2, 7]: No Peak; also recorded: BLQ (BLQ denotes below the lower limit of quantitation (0.2 ng/ml).)
Plasma concentration of psilocin [2, 8]: BLQ (BLQ denotes below the lower limit of quantitation (0.2 ng/ml).); also recorded: No Peak
Stability in plasma ([2]; plasma, LC-MS bioanalysis of the mouse PK study): unstable in plasma; also recorded: ^aA freshly spiked calibration curve was used for quantification C(V) is not stable in plasma; concentrations are not considered accurate; also recorded: ^aDue to C(V) instability in plasma, the PK parameter estimates are not considered accurate
IC50 (GABAA; blocker (BL) mode): > 100 µM
EC50 (GABAA; opener (OP) mode): > 100 µM
5-HT1A receptor modulation (reduction of cAMP levels) (5-HT1A receptor): mild receptor modulation at higher ligand concentrations

— patent US12065404B2, “C4-carboxylic acid-substituted tryptamine derivatives and methods of using” (priority 2022, dated 2024)
